Source: the supplement of paper PMC4932681

Assays:
BT-474 Tam1 [1] = assay: drug sensitivity score (DSS) (DSS (dimensionless)); higher = more sensitive; extreme values may be limits of the assay; conditions: 4-OH-tamoxifen in medium 1 µM; 72 h
Procedure: (§1)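 FIMM FO2B library drugs were tested at 5 concentrations (10,000-fold range) for 72 h, with CellTiter-Glo viability normalised to DMSO and benzethonium chloride controls. The Drug Sensitivity Score (DSS) is computed from the fitted logistic dose-response curve (area-based; 0 = inactive). Resistant lines and the 'in 1µM tamoxifen' arms were tested in 1 µM 4-OH-tamoxifen.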

BT-474 Tam2 [2] = assay: as above; conditions: 4-OH-tamoxifen in medium 1 µM; 72 h
Procedure: as §1

BT-474 [3] = assay: as above; conditions: 72 h
Procedure: as §1

MCF-7 Tam1 [4] = assay: as above; conditions: 4-OH-tamoxifen in medium 1 µM; 72 h
Procedure: as §1

MCF-7 [5] = assay: as above; conditions: 72 h
Procedure: as §1

T-47D Tam1 [6] = assay: as above; conditions: 4-OH-tamoxifen in medium 1 µM; 72 h
Procedure: as §1

T-47D Tam2 = assay: as above; conditions: 4-OH-tamoxifen in medium 1 µM; 72 h
Procedure: as §1

T-47D [7] = assay: as above; conditions: 72 h
Procedure: as §1

ZR-75-1 Tam1 [8] = assay: as above; conditions: 4-OH-tamoxifen in medium 1 µM; 72 h
Procedure: as §1

ZR-75-1 Tam2 [9] = assay: as above; conditions: 4-OH-tamoxifen in medium 1 µM; 72 h
Procedure: as §1

ZR-75-1 [10] = assay: as above; conditions: 72 h
Procedure: as §1

BT-474 Tam1 [11] = assay: relative IC50 (midpoint of fitted logistic curve, plateau may be below 50% inhibition; CellTiter-Glo viability); higher = less potent; conditions: 4-OH-tamoxifen in medium 1 µM; 72 h
Procedure: (§2)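 FIMM FO2B library drugs were plated at 5 concentrations spanning a 10,000-fold range in 384-well plates. Cells were incubated for 72 h at 37 °C and viability was read by CellTiter-Glo, normalised to DMSO (0% inhibition) and 100 µM benzethonium chloride (100% inhibition). IC50 values come from logistic dose-response fits (Breeze pipeline). Tamoxifen-resistant lines and the 'in 1µM tamoxifen' parental arms were tested in medium with 1 µM 4-OH-tamoxifen.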

BT-474 [12] = assay: as above; conditions: 72 h
Procedure: as §2

MCF-7 Tam1 [13] = assay: as above; conditions: 4-OH-tamoxifen in medium 1 µM; 72 h
Procedure: as §2

T-47D Tam1 [14] = assay: as above; conditions: 4-OH-tamoxifen in medium 1 µM; 72 h
Procedure: as §2

ZR-75-1 Tam1 [15] = assay: as above; conditions: 4-OH-tamoxifen in medium 1 µM; 72 h
Procedure: as §2

ZR-75-1 Tam2 [16] = assay: as above; conditions: 4-OH-tamoxifen in medium 1 µM; 72 h
Procedure: as §2

ZR-75-1 [17] = assay: as above; conditions: 72 h
Procedure: as §2

BT-474 Tam2 [18] = assay: as above; conditions: 4-OH-tamoxifen in medium 1 µM; 72 h
Procedure: as §2

MCF-7 [19] = assay: as above; conditions: 72 h
Procedure: as §2

T-47D [20] = assay: as above; conditions: 72 h
Procedure: as §2

relative IC50 (BT-474 Tam1 [11])	relative IC50 (BT-474 [12]; 4-OH-tamoxifen in medium 0 µM)	relative IC50 (BT-474 [12]; 4-OH-tamoxifen in medium 1 µM)	relative IC50 (MCF-7 Tam1 [13])	relative IC50 (T-47D Tam1 [14])	relative IC50 (BT-474 Tam2 [18])	relative IC50 (MCF-7 [19]; 4-OH-tamoxifen in medium 0 µM)	relative IC50 (T-47D [20]; 4-OH-tamoxifen in medium 1 µM)	relative IC50 (T-47D [20]; 4-OH-tamoxifen in medium 0 µM)	Structure (SMILES)	drug sensitivity score (BT-474 Tam1 [1])	drug sensitivity score (BT-474 Tam2 [2])	drug sensitivity score (BT-474 [3]; 4-OH-tamoxifen in medium 0 µM)	drug sensitivity score (BT-474 [3]; 4-OH-tamoxifen in medium 1 µM)	drug sensitivity score (MCF-7 Tam1 [4])	drug sensitivity score (MCF-7 [5]; 4-OH-tamoxifen in medium 0 µM)	drug sensitivity score (MCF-7 [5]; 4-OH-tamoxifen in medium 1 µM)	drug sensitivity score (T-47D Tam1 [6])	drug sensitivity score (T-47D Tam2)	drug sensitivity score (T-47D [7]; 4-OH-tamoxifen in medium 0 µM)	drug sensitivity score (T-47D [7]; 4-OH-tamoxifen in medium 1 µM)	drug sensitivity score (ZR-75-1 Tam1 [8])	drug sensitivity score (ZR-75-1 Tam2 [9])	drug sensitivity score (ZR-75-1 [10]; 4-OH-tamoxifen in medium 0 µM)	drug sensitivity score (ZR-75-1 [10]; 4-OH-tamoxifen in medium 1 µM)	relative IC50 (ZR-75-1 Tam1 [15])	relative IC50 (ZR-75-1 Tam2 [16])	relative IC50 (ZR-75-1 [17]; 4-OH-tamoxifen in medium 1 µM)	relative IC50 (MCF-7 [19]; 4-OH-tamoxifen in medium 1 µM)	relative IC50 (ZR-75-1 [17]; 4-OH-tamoxifen in medium 0 µM)
3.06 µM	> 10 µM	> 10 µM	> 10 µM	> 10 µM	–	–	–	–	NC(=O)c1cccc2cn(-c3ccc([C@@H]4CCCNC4)cc3)nc12 [MK-4827]	2.21	0.615	0	0	0	0.385	1.11	0	0.764	0.34	1.04	0	0	0.0039	0	> 10 µM	> 10 µM	> 10 µM	–	–
–	> 1 µM	–	> 1 µM	> 1 µM	> 1 µM	> 1 µM	> 1 µM	> 1 µM	COc1cc2nccc(Oc3ccc(NC(=O)C4(C(=O)Nc5ccc(F)cc5)CC4)cc3)c2cc1OC [Cabozantinib (XL184)]	0.113	0	0	0.138	0	0	0.282	0	0.0065	0	0	0.0383	0	0	0	–	> 1 µM	> 1 µM	–	> 1 µM
–	40 µM	–	> 40 µM	> 40 µM	> 40 µM	> 40 µM	> 40 µM	–	N[C@@H](CSC(c1ccccc1)(c1ccccc1)c1ccccc1)C(=O)O [S-trityl-L-cysteine]	1.68	0	0	1.41	0	0	1.69	0	0.0046	0.0068	0	0	0.627	1.65	0	> 40 µM	–	> 40 µM	–	–
4.03 µM	> 10 µM	–	> 10 µM	> 10 µM	–	> 10 µM	> 10 µM	–	Cc1ccc(NC(=O)c2ccc(CN3CCN(C)CC3)cc2)cc1Nc1nccc(-c2cccnc2)n1 [Imatinib]	1.97	1.21	0	0.471	0	0	0	0	0.454	0	0	0	0	0	0.933	> 10 µM	> 10 µM	–	–	> 10 µM
> 10 µM	> 10 µM	–	1.17 µM	1.82 µM	> 10 µM	1.7 µM	1.87 µM	–	C[C@]1(O)C[C@@H](c2nc(-c3ccc4ccc(-c5ccccc5)nc4c3)c3c(N)nccn32)C1 [Linsitinib (OSI-906)]	0	0	0	0.462	3.94	4.58	5.68	7.18	1.19	2.48	2.45	0.0832	0.681	0	1.21	–	–	–	1.62 µM	> 10 µM
> 10 µM	> 10 µM	> 10 µM	> 10 µM	0.616 µM	> 10 µM	0.49 µM	–	4.1 µM	Nc1nc(Cl)nc2c1ncn2[C@@H]1O[C@H](CO)[C@@H](O)[C@@H]1F [Clofarabine]	0	0	0	0	0	4.41	2.44	5.4	1.77	1.21	0.982	1.26	0.782	0.522	0.104	–	–	–	–	–
–	> 10 µM	> 10 µM	> 10 µM	> 10 µM	> 10 µM	> 10 µM	> 10 µM	> 10 µM	C[C@@H]1C[C@H]2[C@@H]3CCC4=CC(=O)C=C[C@]4(C)[C@@]3(F)[C@@H](O)C[C@]2(C)[C@@]1(O)C(=O)CO [Dexamethasone  (Decadron)]	0	0	0	0	0	0	1.88	0	0	0	0	0	0.209	0	0	> 10 µM	–	> 10 µM	–	> 10 µM

Structure (SMILES)	relative IC50 (BT-474 Tam1 [11])	relative IC50 (BT-474 [12]; 4-OH-tamoxifen in medium 0 µM)	relative IC50 (BT-474 [12]; 4-OH-tamoxifen in medium 1 µM)	relative IC50 (MCF-7 Tam1 [13])	relative IC50 (T-47D Tam1 [14])	relative IC50 (BT-474 Tam2 [18])	relative IC50 (MCF-7 [19]; 4-OH-tamoxifen in medium 0 µM)	relative IC50 (T-47D [20]; 4-OH-tamoxifen in medium 1 µM)	relative IC50 (T-47D [20]; 4-OH-tamoxifen in medium 0 µM)	drug sensitivity score (BT-474 Tam1 [1])	drug sensitivity score (BT-474 Tam2 [2])	drug sensitivity score (BT-474 [3]; 4-OH-tamoxifen in medium 0 µM)	drug sensitivity score (BT-474 [3]; 4-OH-tamoxifen in medium 1 µM)	drug sensitivity score (MCF-7 Tam1 [4])	drug sensitivity score (MCF-7 [5]; 4-OH-tamoxifen in medium 0 µM)	drug sensitivity score (MCF-7 [5]; 4-OH-tamoxifen in medium 1 µM)	drug sensitivity score (T-47D Tam1 [6])	drug sensitivity score (T-47D Tam2)	drug sensitivity score (T-47D [7]; 4-OH-tamoxifen in medium 0 µM)	drug sensitivity score (T-47D [7]; 4-OH-tamoxifen in medium 1 µM)	drug sensitivity score (ZR-75-1 Tam1 [8])	drug sensitivity score (ZR-75-1 Tam2 [9])	drug sensitivity score (ZR-75-1 [10]; 4-OH-tamoxifen in medium 0 µM)	drug sensitivity score (ZR-75-1 [10]; 4-OH-tamoxifen in medium 1 µM)	relative IC50 (ZR-75-1 Tam1 [15])	relative IC50 (ZR-75-1 Tam2 [16])	relative IC50 (ZR-75-1 [17]; 4-OH-tamoxifen in medium 1 µM)	relative IC50 (MCF-7 [19]; 4-OH-tamoxifen in medium 1 µM)	relative IC50 (ZR-75-1 [17]; 4-OH-tamoxifen in medium 0 µM)
O=C1c2c(O)ccc(O)c2C(=O)c2c(NCCNCCO)ccc(NCCNCCO)c21 [Mitoxantrone]	> 1 µM	> 1 µM	> 1 µM	> 1 µM	0.0368 µM	> 1 µM	> 1 µM	> 1 µM	–	0	0	0	0	0	0	0	7.08	1.21	2.79	0	1.67	4.66	3.03	2.35	–	–	–	> 1 µM	–
